Reference: patent US20130281405A1, “USE OF PC-NSAIDS TO TREAT AND/OR PREVENT PULMONARY INFLAMMATION” (priority 2012, published 2013)

Experiments:
[1] = system: O3-induced pulmonary inflammation; experiment: O3-induced pulmonary inflammation model, parenteral administration, BALF analysis; type: in vivo, mice; conditions: 10 mg/kg, BALF 24 h post exposure, FIG. 2, pilot study
Protocol: Using the O3-induced pulmonary inflammation model, we have evaluated and compared the anti-inflammatory efficacy of PC-Indomethacin vs indomethacin administered parenterally at a dose of 10 mg/kg vs vehicle control and evaluated the BALF 24 h post exposure. The white cell counts and protein concentrations of the BALF of the test groups are depicted in FIG. 2.

[2] = system: O3-induced pulmonary inflammation; experiment: O3-induced lung injury/pulmonary inflammation model, endotracheal administration, BALF analysis; type: in vivo, mice
Protocol: Because of the clinical relevance of environmental ozone exposure, and the experience of our team, with the murine model of O3-induced LI, pulmonary inflammation, and/or AHR, we have evaluated the anti-inflammatory efficacy of our PC-NSAID formulations using this robust model system. In these studies, all mice were pre-dosed (via endotracheal administration) with vehicle, indomethacin (at a dose range from 2 mg/kg), ibuprofen (5 mg/kg) or the equivalent (NSAID) doses of the PC-NSAID compositions, 1 h before and 1.5 hours after being exposed to either filtered room air or O3 (2 ppm) for 3 h and then 6 h or 24 h following the cessation of exposure airway pulmonary injury and inflammation were assessed by euthanizing the animals and collecting bronchoalveolar lavage fluid (BALF) using standard techniques. The O3 exposure protocol were chosen to allow for comparison with data of other investigators studying acute O3-induced pulmonary inflammation/AHR in mice.
In these studies, all mice were pre-dosed with vehicle (PBS), NSAID (indomethacin or ibuprofen) (at a dose of 2 mg NSAID/kg), or the equivalent (NSAID) dose of the corresponding PC-NSAID composition using an endo-tracheal delivery method refined that we refined (25 μL/rat) 1 h before and 90 minutes after being exposed to either filtered room air or O3 (2 ppm) for 3 h. The PC-Indomethacin composition was prepared dissolving indomethacin and purified PC (Phospholipon 90G from Lipoid) in a polar solvent (such as acetone), followed by vacuum removal of the solvent to form a purified PC-NSAID oil composition. This purified PC-NSAID oil composition is then added to an amount of phosphate buffered saline (PBS) followed by 30 minutes of sonication to provide a uniform composition at the appropriate dose for intra-tracheal administration. In some experiments, we prepared the PC-Indomethacin composition using Lipoid S-100 (a highly purified >98% soy PC product, as recommended by the manufacturer) instead of Phospholipon 90G, as well as comparing the effects of the purified soy PC products (S-100 and 90G) alone. […] Twenty-four hours (24 h) following the cessation of O3 exposure, pulmonary injury and inflammation were assessed by euthanizing the animals and collecting bronchoalveolar lavage (BALE) fluid using standard techniques. The collected BALF samples were centrifuged (with the cell pellet analyzed for white cells) and the supernatant analyzed for protein and prostaglandin E2, all markers of pulmonary inflammation.
The concentration of total BALF protein has been determined spectrophotometrically according to the Bradford protein assay procedure (Bio-Rad Laboratories, Inc.; Hercules, Calif.) while the levels of IL-6, MIP-2, PGE2 in the BALF are determined using a commercially available ELISA kit (Immunology Consultants Laboratories, Inc., Newberg, Oreg.), and MPO activity (by enzymatic kit provided CytoStore) in accordance to the manufacturer's instructions. Pulmonary inflammation has been determined by assessing the BALF cell differentials on Cytospin cytocentrifuge preparations. Hemoglobin has been measured by the benzidine assay.
We used a modification the protocol employed in pilot studies. In these earlier experiments, mice were pre-dosed with phosphate buffered saline (PBS) vehicle, the test NSAID (indomethacin or ibuprofen) (at a dose of 2 mg or 5 mg NSAID/kg), PC (4 mg/k or 10 mg/kg), respectively, or the equivalent (NSAID) dose of the PC-NSAID complex using an endotracheal delivery method refined in our lab (25 μL/rat) 1 h before and 90 minutes after being exposed to either filtered room air or O3 (2 ppm) for 3 h.

[3] = Storage stability of PC-NSAID oil and reconstituted dispersions; type: physicochemical; conditions: dispersed in sodium bicarbonate buffer, stored at 4° C., FIG. 8
Protocol: The proprietary method used to prepare the purified PC-NSAIDs takes advantage of the fact that pre-dissolving indomethacin (or ibuprofen) in acetone beforehand markedly increases the solubility of PC in this polar solvent (normally PC has a very limited solubility in acetone). Thereby the NSAID and purified soy PC (Lipoid S-100) (1:1 PC to NSAID molar ratio, which correspond to 2:1 PC to NSAID weight ratio) are dissolved in acetone, in this order and incubated at 40° C. until the solution clarifies. This solution is then placed in a rotor-evaporator for at least 12 hours to remove the volatile solvent. In the case of disaturated PC, such as dipalmitoyl-PC (DPPC) (which is the major phospholipid in pulmonary surfactant) we have learned that it is important to have 2-4 times more NSAID than PC (on a molar basis) to drive the solubility of the DPPC into the polar solvent. […] With the advice of the soy lecithin manufacturer (Lipoid Inc., Heidelberg, Germany) we are transitioning to their more purified soy lecithin product (Lipoid S-100) which already is approved for parenteral administration. […] FIGS. 10-13 indicate that these PC-NSAID formulations can readily be aerosolized into particles having a diameter between 2-6 μm for deep lung deposition.

[4] = ozone-exposed mice (2 ppm, 3 h), endotracheal dosing 1 h before and 90 min after, BALF 24 h post-exposure, *=p<0.05 vs air

Structure (SMILES): COc1ccc2c(c1)c(CC(=O)O)c(C)n2C(=O)c1ccc(Cl)cc1 [Indomethacin, indomethacin]
- white cell counts and protein concentrations of the BALF (index of O3-induced pulmonary inflammation) [1]: appeared to inhibit
- white cell count in BALF, effect in words ([2]; O3-exposed mice, endotracheal, BALF 24 h post, FIG. 3 (indomethacin), FIG. 9A (ibuprofen, PC is DPPC)): increased white cell count relative to vehicle
- protein concentration of BALF, effect in words ([2]; O3-exposed mice, endotracheal, BALF 24 h post, FIG. 4 (indomethacin), FIG. 9B (ibuprofen, PC is DPPC)): did not cause a similar effect
- PGE2 concentration in BALF, effect in words ([2]; O3-exposed mice, endotracheal, FIG. 6 (indomethacin), FIG. 9D (ibuprofen, PC is DPPC)): statistically significant effect to markedly inhibit
- BALF Cell Number [2, 4]: 163 ± 53*
- BALF MPO [2, 4]: 2.12 ± 0.43* ng/mL
- BALF PGE2 [2, 4]: 274 ± 141 pg/mL
- BALF Protein [2, 4]: 796 ± 135* μg/mL
- stability in sodium bicarbonate buffer [3]: degrades over time
